Source: ChEMBL document CHEMBL1201862, “PubChem BioAssay data set” (2004)
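1) Cells in 96-well plates. 2) Compound, 48 h, 5 concentrations. 3) Linear interpolation between surrounding doses. 4) Unreached endpoint = highest concentration. Here, GI50 denotes the concentration required for 50% inhibition of growth.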 Active and inactive are the calls of the source. Rule as the data show it: active = GI50 up to about 1.1 µM and inactive = higher.

How the values were obtained:
Assay in all cases: NCI tumour cell line growth inhibition, 48 h
ACHN = test system: ACHN
BT-549 = test system: BT-549
COLO 205 = test system: COLO 205
HCT-116 = test system: HCT-116
HL-60 = test system: HL-60
HT-29 = test system: HT-29
IGROV-1 = test system: IGROV-1
KM12 = test system: KM12
M14 = test system: M14
MDA-MB-435 = test system: MDA-MB-435
MOLT-4 = test system: MOLT-4
Malme-3M = test system: Malme-3M
NCI-H23 = test system: NCI-H23
OVCAR-3 = test system: OVCAR-3
SF-295 = test system: SF-295
SK-MEL-28 = test system: SK-MEL-28
SK-MEL-5 = test system: SK-MEL-5
SNB-75 = test system: SNB-75
SR = test system: SR
HOP-92 = test system: HOP-92

Row | SMILES | GI50 (ACHN) | GI50 (BT-549) | GI50 (COLO 205) | GI50 (HCT-116) | GI50 (HL-60) | GI50 (HT-29) | GI50 (IGROV-1) | GI50 (KM12) | GI50 (M14) | GI50 (MDA-MB-435) | GI50 (MOLT-4) | GI50 (Malme-3M) | GI50 (NCI-H23) | GI50 (OVCAR-3) | GI50 (SF-295) | GI50 (SK-MEL-28) | GI50 (SK-MEL-5) | GI50 (SNB-75) | GI50 (SR) | GI50 (HOP-92)
1 | NC(=O)CNC(=O)[C@@H]1C[C@@H](OCCC(=O)O)CN1C(=O)OCc1ccccc1 | > 100 µM (inactive) | > 100 µM (inactive) | > 100 µM (inactive) | > 100 µM (inactive) | > 100 µM (inactive) | > 100 µM (inactive) | > 100 µM (inactive) | > 100 µM (inactive) | > 100 µM (inactive) | > 100 µM (inactive) | > 100 µM (inactive) | > 100 µM (inactive) | > 100 µM (inactive) | > 100 µM (inactive) | > 100 µM (inactive) | > 100 µM (inactive) | > 100 µM (inactive) | > 100 µM (inactive) | > 100 µM (inactive) | –
2 | COc1cccc([C@H]2CC(=O)c3cc4c(cc3N2)OCO4)c1 | 0.847 µM (active) | 8.59 µM (inactive) | 0.296 µM (active) | 0.352 µM (active) | – | 0.194 µM (active) | 0.622 µM (active) | 0.317 µM (active) | 0.237 µM (active) | 0.0743 µM (active) | 0.938 µM (active) | 0.671 µM (active) | 0.451 µM (active) | 0.598 µM (active) | 0.296 µM (active) | 4.82 µM (inactive) | 0.216 µM (active) | > 100 µM (inactive) | 0.318 µM (active) | 19.1 µM (inactive)
3 | O=c1cc(NNc2cccc(F)c2)[nH]c(=S)[nH]1 | > 100 µM (inactive) | > 100 µM (inactive) | 77.1 µM (inactive) | > 100 µM (inactive) | 71.9 µM (inactive) | > 100 µM (inactive) | > 100 µM (inactive) | 96.8 µM (inactive) | > 100 µM (inactive) | > 100 µM (inactive) | – | > 100 µM (inactive) | – | 26.9 µM (inactive) | > 100 µM (inactive) | > 100 µM (inactive) | > 100 µM (inactive) | – | > 100 µM (inactive) | 19.2 µM (inactive)
4 | C=C1C(=O)OC2CC(=C)C3CC=C(C)C3CC12 (stereo not given) | 18.7 µM (inactive) | 14.7 µM (inactive) | 17.9 µM (inactive) | 18.4 µM (inactive) | 18.3 µM (inactive) | 13 µM (inactive) | 18 µM (inactive) | 41.1 µM (inactive) | 18 µM (inactive) | 15.7 µM (inactive) | 17.3 µM (inactive) | > 10 µM (inactive) | – | 27.5 µM (inactive) | 32.4 µM (inactive) | 23.1 µM (inactive) | 27 µM (inactive) | – | 18.1 µM (inactive) | 10.5 µM (inactive)
5 | CO/C(=N\N=C\c1ccc(C(F)(F)F)cc1)c1ccncc1 | > 10 µM (inactive) | > 10 µM (inactive) | > 10 µM (inactive) | > 10 µM (inactive) | > 10 µM (inactive) | > 10 µM (inactive) | – | > 10 µM (inactive) | > 10 µM (inactive) | > 10 µM (inactive) | > 10 µM (inactive) | > 10 µM (inactive) | > 10 µM (inactive) | > 10 µM (inactive) | > 10 µM (inactive) | – | – | – | > 10 µM (inactive) | > 10 µM (inactive)
6 | O=C1/C(=C/c2ccc(Cl)cc2)N=C(c2ccccc2)N1c1nc2c(Cl)cc(Cl)cc2s1 | 31.7 µM (inactive) | 28.5 µM (inactive) | 37.9 µM (inactive) | 20 µM (inactive) | 17.3 µM (inactive) | 23.9 µM (inactive) | 32.4 µM (inactive) | 24.3 µM (inactive) | 34.9 µM (inactive) | 24.7 µM (inactive) | 2.28 µM (inactive) | – | – | 19.8 µM (inactive) | 30.6 µM (inactive) | 44.5 µM (inactive) | 18.9 µM (inactive) | 35.7 µM (inactive) | 14.3 µM (inactive) | 26.2 µM (inactive)
7 | CCOc1cc2c(cc1O)C(=O)C[C@@H]1[C@@H]2CC[C@]2(C)[C@@H](O)CC[C@@H]12 | 0.168 µM (active) | 0.15 µM (active) | 20.5 µM (inactive) | 0.144 µM (active) | 0.185 µM (active) | 6.87 µM (inactive) | 0.861 µM (active) | 2.69 µM (inactive) | 0.385 µM (active) | 0.0197 µM (active) | 0.172 µM (active) | 0.294 µM (active) | 0.33 µM (active) | 0.092 µM (active) | 0.158 µM (active) | 0.19 µM (active) | 0.0634 µM (active) | 0.106 µM (active) | – | 9.06 µM (inactive)
8 | O/N=C\c1c2c(cc3c1CCC3)CCC2 | > 100 µM (inactive) | > 100 µM (inactive) | > 100 µM (inactive) | > 100 µM (inactive) | > 100 µM (inactive) | > 100 µM (inactive) | > 100 µM (inactive) | > 100 µM (inactive) | > 100 µM (inactive) | > 100 µM (inactive) | 25 µM (inactive) | > 100 µM (inactive) | > 100 µM (inactive) | > 100 µM (inactive) | > 100 µM (inactive) | > 100 µM (inactive) | > 100 µM (inactive) | 36.5 µM (inactive) | > 100 µM (inactive) | –
